Measurements: patent publication US11066392B2, “Inhibitors of indoleamine 2,3-dioxygenase and methods of their use” (BRISTOL-MYERS SQUIBB COMPANY, priority 2017, dated 2021)
Read-outs that look alike come from different tables or passages of the source.

Target: indoleamine 2,3-dioxygenase (IDO) (Homo sapiens, UniProt P14902)
Assay: HeLa cell-based indoleamine 2,3-dioxygenase (IDO) assay (kynurenine production, IFNγ-stimulated)
Conditions: HeLa cells
Experimental: Assessment of inhibitor activity in HeLa cell-based indoleamine 2,3-dioxygenase (IDO) assay. HeLa (ATCC® CCL-2) cells were obtained from the ATCC® and cultured in Dulbecco's Modified Eagle Medium supplemented with 4.5 g/L glucose, 4.5 […] sodium pyruvate (#10-013-CV, Corning), 2 mM L-alanyl-L-glutamine dipeptide (#35050-061, Gibco), 100U/mL penicillin, 100 μg/mL streptomycin (#SV30010, HyClone) and 10% fetal bovine serum (#SH30071.03 HyClone). Cells were maintained in a humidified incubator at 37° C. in 5% CO2. […] After 24 hours, the media was aspirated and replaced with media containing IFNγ (#285-IF/CF, R&D Systems) at a final concentration of 25 ng/mL. A serial dilution of each test compound was added to the cells in a total volume of 200 μL of culture medium. After a further 48 hour incubation, 170 μL of supernatant was transferred from each well to a fresh 96-well plate. 12.1 μL of 6.1N trichloroacetic acid (#T0699, Sigma-Aldrich) was added to each well and mixed, followed by incubation at 65° C. for 20 minutes to hydrolyze N-formylkynurenine, the product of indoleamine 2,3-dioxygenase, to kynurenine. The reaction mixture was then centrifuged for 10 mins at 500×g to sediment the precipitate. 100 μL of the supernatant was transferred from each well to a fresh 96-well plate. 100 μl of 2% (w/v) p-dimethylaminobenzaldehyde (#15647-7, Sigma-Aldrich) in acetic acid (#A6283, Sigma-Aldrich) was added to each well mixed and incubated at room temperature for 20 mins. Kynurenine concentrations were determined by measuring absorbance at 480 nm and calibrating against an L-kynurenine (#K8625, Sigma-Aldrich) standard curve using a SPECTRAMAX® M2e microplate reader (Molecular Devices). The percentage activity at each inhibitor concentration was determined and IC50 values assessed using nonlinear regression. Activity for compounds described herein is provided in Table 1, wherein potency levels are provided as follows: (Potency: IDO IC50: […])

[1] = IFNγ 25 ng/mL, 48 hour incubation, read-out: IDO Hela IC50
[2] = potency class, read-out: Patent Potency Hela IC50 A < 10 nM, B > 10 nM, C > 100 nM

Sequence of indoleamine 2,3-dioxygenase (IDO) (P14902 whole entry): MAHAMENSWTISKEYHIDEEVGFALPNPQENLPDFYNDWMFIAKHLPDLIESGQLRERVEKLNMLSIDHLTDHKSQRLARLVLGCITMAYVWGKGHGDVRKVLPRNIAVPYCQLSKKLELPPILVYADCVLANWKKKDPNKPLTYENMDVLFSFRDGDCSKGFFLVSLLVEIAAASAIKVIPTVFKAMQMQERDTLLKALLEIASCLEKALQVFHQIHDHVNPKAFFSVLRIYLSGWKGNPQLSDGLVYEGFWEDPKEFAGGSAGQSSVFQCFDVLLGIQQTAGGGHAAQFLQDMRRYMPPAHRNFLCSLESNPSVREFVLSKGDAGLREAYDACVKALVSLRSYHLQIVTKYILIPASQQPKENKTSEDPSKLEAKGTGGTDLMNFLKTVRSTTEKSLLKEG

SMILES | IC50 [1] | IC50 [2]
CC[C@@H](NC(=O)c1ccc(OC)nc1)[C@H]1CC[C@@H](c2ccn(C)c(=O)c2)CC1 (single isomer, unassigned) [Example 31b, 6-Methoxy-N-(1-(4-(1-methyl-2-oxo-1,2-dihydropyridin-4-yl)cyclohexyl)propyl)nicotinamide] | 970 nM | 
COCC(NC(=O)c1ccc(OC)nc1)C1CCC(c2ccnc3ccc(F)cc23)CC1 (stereo not shown) [Example 14a, N-(1-((1s,4s)-4-(6-Fluoroquinolin-4-yl)cyclohexyl)-2-methoxyethyl)-6-methoxynicotinamide] |  | < 10 nM
CCC(NC(=O)c1ccc(OC)nc1)C1CCC(c2ccnc3ncccc23)CC1 (mixture of isomers) [Example 52, (+/−)-Cis and trans N-(1-(4-(1,8-naphthyridin-4-yl)cyclohexyl)propyl)-6-methoxynicotinamide] | 30 nM | 
CCC(NC(=O)c1ccc(OC)nc1)C1CCC(c2ccnc(F)c2C)CC1 (single isomer, unassigned) [Example 27a, N-(1-((1s,4s)-4-(2-Fluoro-3-methylpyridin-4-yl)cyclohexyl)propyl)-6-methoxynicotinamide] | 490 nM | 
CCC(NC(=O)c1ccc(OC)nc1)C1CCC(c2ccnc3c(C(F)(F)F)cccc23)CC1 (single isomer, unassigned) [Example 18b, 6-Methoxy-N-(1-((1s,4s)-4-(8-(trifluoromethyl)quinolin-4-yl)cyclohexyl)propyl)nicotinamide] |  | < 10 nM
CC[C@@H](NC(=O)c1ccc(OC)nc1)[C@H]1CC[C@@H](c2cnc3ccccc3c2)CC1 (single isomer, unassigned) [Example 20a, 6-Methoxy-N-(1-(4-(quinolin-3-yl)cyclohexyl)propyl)nicotinamide] | 250 nM | 
[2H]C([2H])([2H])Oc1ccc(C(=O)NC(CC)[C@H]2CC[C@@H](c3ccnc(OC)c3C(F)F)CC2)cn1 (mixture of isomers) [Example 65, (±)-N-(1-((1s,4s)-4-(3-(difluoromethyl)-2-methoxypyridin-4-yl)cyclohexyl)propyl)-6-(methoxy-d3)nicotinamide] |  | < 10 nM
CCC(NC(=O)c1ccc(OC)nc1)C1CCC(c2cccc(C(F)(F)F)n2)CC1 (single isomer, unassigned) [Example 47d, 6-methoxy-N-(1-(4-(6-(trifluoromethyl)pyridin-2-yl)cyclohexyl)propyl)nicotinamide] | 290 nM | 
CCC(NC(=O)c1ccc(OC)nc1)C1CCC(c2ccnc3c(C(F)(F)F)cccc23)CC1 (single isomer, unassigned) [Example 18a, 6-Methoxy-N-(1-((1s,4s)-4-(8-(trifluoromethyl)quinolin-4-yl)cyclohexyl)propyl)nicotinamide] | 830 nM | 
CC[C@H](NC(=O)c1ccc(OC)nc1)[C@H]1CC[C@@H](c2cncc(OC)c2)CC1 (single isomer, unassigned) [Example 50a, 6-methoxy-N-(1-(4-(5-methoxypyridin-3-yl)cyclohexyl)propyl)nicotinamide] | 990 nM | 
CC[C@@H](NC(=O)c1cnc(OC)nc1)[C@H]1CC[C@@H](c2ccnc3c(F)cccc32)CC1 (single isomer, unassigned) [Example 60b, N-(1-(4-(8-fluoroquinolin-4-yl)cyclohexyl)propyl)-2-methoxypyrimidine-5-carboxamide] | 250 nM | 
CCC(NC(=O)c1cnc(C)nc1)C1CCC(c2ccnc(OC)c2F)CC1 (stereo not shown) [Example 23, N-(1-(4-(3-Fluoro-2-methoxypyridin-4-yl)cyclohexyl)propyl)-2-methylpyrimidine-5-carboxamide] | 110 nM | 
COCC(NC(=O)c1ccc(OC)nc1)C1CCC(c2ccnc3ccc(C(F)(F)F)cc23)CC1 (single isomer, unassigned) [Example 12b, 6-Methoxy-N-(2-methoxy-1-((1s,4s)-4-(6-(trifluoromethyl)quinolin-4-yl)cyclohexyl)ethyl)nicotinamide] |  | < 10 nM
CCC(NC(=O)c1ccc(=O)[nH]c1)C1CCC(c2ccnc(OC)c2C(F)F)CC1 (single isomer, unassigned) [Example 63-1, N-(1-((1s,4s)-4-(3-(difluoromethyl)-2-methoxypyridin-4-yl)cyclohexyl)propyl)-6-oxo-1,6-dihydropyridine-3-carboxamide] |  | > 100 nM
CCC(NC(=O)c1ccc(OC)nc1)C1CCC(c2cc[nH]c(=O)c2C(F)F)CC1 (single isomer, unassigned) [Example 64-1, N-(1-((1s,4s)-4-(3-(difluoromethyl)-2-oxo-1,2-dihydropyridin-4-yl)cyclohexyl)propyl)-6-methoxynicotinamide] |  | > 100 nM
CCC(NC(=O)c1cnc(OC)nc1)C1CCC(c2ccnc3c(F)cc(F)cc23)CC1 (single isomer, unassigned) [Example 58a] | 310 nM | 
CC[C@@H](NC(=O)c1ccc(OC)nc1)[C@H]1CC[C@@H](c2cnc3ccccc3c2)CC1 (single isomer, unassigned) [Example 20b, 6-Methoxy-N-(1-(4-(quinolin-3-yl)cyclohexyl)propyl)nicotinamide] |  | > 100 nM
CCC(NC(=O)c1ccc(OC)nc1)C1CCC(c2cccc(C(F)(F)F)n2)CC1 (single isomer, unassigned) [Example 47a, 6-methoxy-N-(1-(4-(6-(trifluoromethyl)pyridin-2-yl)cyclohexyl)propyl)nicotinamide] | 180 nM | 
COCC(NC(=O)c1ccc(OC)nc1)C1CCC(c2ccnc3ccc(C(F)(F)F)cc23)CC1 (single isomer, unassigned) [Example 12a, 6-Methoxy-N-(2-methoxy-1-((1s,4s)-4-(6-(trifluoromethyl)quinolin-4-yl)cyclohexyl)ethyl)nicotinamide] | 80 nM | 
COc1ccc(C(=O)NC(C)C2(O)CCC(c3ccnc4ccc(F)cc34)CC2)cn1 (single isomer, unassigned) [Example 62a, N-(1-((1r,4r)-4-(6-fluoroquinolin-4-yl)-1-hydroxycyclohexyl)ethyl)-6-methoxynicotinamide] | 70 nM | 
CC[C@@H](NC(=O)c1ccc(OC)nc1)[C@H]1CC[C@@H](c2cnc3ccccc3c2)CC1 (single isomer, unassigned) [Example 20d, 6-Methoxy-N-(1-(4-(quinolin-3-yl)cyclohexyl)propyl)nicotinamide] | 60 nM | 
CC[C@@H](NC(=O)c1ccc(OC)nc1)[C@H]1CC[C@@H](c2ccnc3c(F)cccc32)CC1 (single isomer, unassigned) [Example 59c, N-(1-(4-(8-fluoroquinolin-4-yl)cyclohexyl)propyl)-6-methoxynicotinamide] | 330 nM | 
CCC(NC(=O)c1ccc(N)nc1)[C@H]1CC[C@@H](c2ccnc(OC)c2C)CC1 (single isomer, unassigned) [Example 29b, 6-Amino-N-(1-((1s,4s)-4-(2-methoxy-3-methylpyridin-4-yl)cyclohexyl)propyl)nicotinamide] | 10 nM | 
CCC(NC(=O)c1ccc(OC)nc1)C1CCC(c2ccnc3c(F)cc(F)cc23)CC1 (single isomer, unassigned) [Example 57a] | 830 nM | 
CCC(NC(=O)c1ccc(OC)nc1)C1CCC(c2ccnc3ccc(C(F)(F)F)cc23)CC1 (single isomer, unassigned) [Example 11b, 6-Methoxy-N-(1-((1s,4s)-4-(6-(trifluoromethyl)quinolin-4-yl)cyclohexyl)propyl)nicotinamide] |  | < 10 nM
